In article PMC8944975, “Secretin Receptor as a Target in Gastrointestinal Cancer: Expression Analysis and Ligand Development” (Biomedicines, 2022):
Read-outs that look alike come from different tables or passages of the source. One block for each molecule: values may come before it. Where no end group is shown, it is not given here. [ ]: non-standard residue; d: D form.

Assays:
[1] = biological target: T1, human SCTR (Homo sapiens, UniProt P47872); assay: GloSensor cAMP assay, agonist mode; type: cell-based; parameters: expressed in transfected cells; settings: for Emax: read-out: cAMP Production, Intrinsic Activity
Method: Analysis of downstream signaling of activated SCTR via Gαs G-protein subunits was performed by monitoring intracellular cAMP utilizing the GloSensor system (Promega, Walldorf, Germany) in accordance with the supplier protocol. Measurements were performed using the EnVision Analyzer (PerkinElmer, Rodgau, Germany). For evaluation, concentration–response curves (signal-to-noise ratios plotted) employing the derived statistical mean and SD for estimation of the respective EC50 were calculated using Spotfire Decision Site (TIBCO, Palo Alto, CA, USA). For the analysis of antagonists, a modified protocol was used. Treatment of cells and dilution of the potential antagonist was performed as previously described. Ligand dilutions were added to cells and incubated at room temperature for 5 min. Successively, secretin was added at a final concentration of 0.5 nM for an additional 15 min at room temperature. The emitted chemiluminescence, which correlates with the cAMP concentration, was detected with suitable filters. Evaluation of data was performed as previously described with a calculation of half-maximal inhibitory concentration (IC50).

[2] = biological target: T1, human SCTR; assay: β-arr2-GFP translocation assay run in antagonist mode; type: cell-based; parameters: expressed in transfected cells; host or cells: U2OS (human osteosarcoma), stably co-transfected with β-arrestin2-GFP
Text: U2OS-SCTR/β-arr2-GFP: human osteosarcoma cell line U2OS (purchased from ATCC/LGC Standards, Wesel, Germany) were stably transfected with plasmids encoding SCTR (Homo sapiens) and the fusion protein β-arrestin2-green fluorescent protein (GFP) (Rattus norvegicus-Aequorea victoria) (β-arr2-GFP).
For analysis of antagonistic effects on SCTR, a slightly modified protocol of the β-arr2-GFP translocation was used. […] For analysis, cells were terminally fixed and permeabilized as previously described. The additional monitoring of IDCC fluorescence in the near-infrared channel (667 nm) provided another measure for receptor binding and activation.

[3] = biological target: T2, human secretin receptor (SCTR) (human, UniProt P47872 23-440); assay: radioligand binding; saturation binding of I^125-secretin on U2OS-SCTR membrane isolates; total, unspecific and specific binding
[4] = biological target: T1, human SCTR; assay: agonist-induced β-arr2-GFP translocation; type: cell-based; parameters: expressed in transfected cells; host or cells: U2OS (human osteosarcoma), stably co-transfected with β-arrestin2-GFP; settings: Supplementary Tables S1 and S2, decimal comma, '-' not detectable (Figure 4); for β-arrestin2-GFP agonism efficacy: % of wild-type secretin; for EC50: U2OS-SCTR/β-arr2-GFP cells, 20 min at 37 °C, mean of at least three independent experiments in duplicates, read-out: β-arrestin2-GFP agonism potency
How it was run: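 U2OS cells stably co-expressing human SCTR and rat β-arrestin2-GFP, serum-starved 1 h, then given serial ligand dilutions for 20 min at 37 °C before fixation and DAPI staining.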

[5] = in vivo; cited from earlier work
Text: Due to their vulnerability towards proteolytic degradation, most peptide hormones have short half-lives of only a few minutes. […] To chemically stabilize a peptide ligand by the introduction of artificial amino acids, the amino acid positions crucial for its activity need to be identified. The experimental strategy included design and synthesis of a library of secretin variants that would contain single amino acid substitutions as well as truncations on either end. To characterize a large number of individual peptides ...

[6] = biological target: T2, human secretin receptor (SCTR)
[7] = biological target: T2, human secretin receptor (SCTR); assay: cell-based or functional assay
[8] = GloSensor cAMP assay, at least 3 independent experiments in duplicates
[9] = read-out: IC50, inhibition of β-arr2-GFP translocation (Table 2)
[10] = Supplementary Table S2, GloSensor system, at least three independent experiments in duplicates, decimal comma, read-out: cAMP agonism potency

T2 sequence (P47872 23-440): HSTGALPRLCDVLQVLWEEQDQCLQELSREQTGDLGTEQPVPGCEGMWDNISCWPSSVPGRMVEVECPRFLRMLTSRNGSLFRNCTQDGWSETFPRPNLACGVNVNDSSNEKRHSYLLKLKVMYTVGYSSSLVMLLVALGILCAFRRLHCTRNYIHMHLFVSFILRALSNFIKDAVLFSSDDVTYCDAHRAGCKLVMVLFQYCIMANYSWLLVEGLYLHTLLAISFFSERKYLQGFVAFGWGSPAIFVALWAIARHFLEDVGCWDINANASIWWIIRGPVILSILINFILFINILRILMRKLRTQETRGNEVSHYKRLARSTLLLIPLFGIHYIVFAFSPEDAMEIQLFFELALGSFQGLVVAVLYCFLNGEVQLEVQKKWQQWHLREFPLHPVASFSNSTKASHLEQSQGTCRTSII
T1 sequence (P47872 23-440): as above

Molecule: CC(C)C[C@H](NC(=O)CNC(=O)[C@H](CCC(N)=O)NC(=O)[C@H](CC(C)C)NC(=O)[C@H](CC(C)C)NC(=O)[C@H](CCCNC(=N)N)NC(=O)[C@H](CCC(N)=O)NC(=O)[C@H](CC(C)C)NC(=O)[C@H](CCCNC(=N)N)NC(=O)[C@H](C)NC(=O)CNC(=O)[C@H](CCC(=O)O)NC(=O)[C@H](CCCNC(=N)N)NC(=O)[C@H](CC(C)C)NC(=O)[C@H](CCCNC(=N)N)NC(=O)[C@H](CO)NC(=O)[C@H](CC(C)C)NC(=O)[C@H](CCC(=O)O)NC(=O)[C@H](CO)NC(=O)[C@@H](N)[C@@H](C)O)C(=O)N[C@H](C(N)=O)C(C)C [Peptide 120]
Emax [1, 8]: 90.6 ± 11.5%
EC50 ([1]; GloSensor cAMP assay, at least 3 independent experiments in duplicates, read-out: cAMP Production, EC50): 3370 ± 1570 nM
IC50 [2, 9]: > 3000 nM
IC50 ([2]; read-out: Inhibition of β-arr2-GFP Translocation, IC50): > 3000 nM

Molecule: CC(C)C[C@H](NC(=O)CNC(=O)[C@H](CCC(N)=O)NC(=O)[C@H](CC(C)C)NC(=O)[C@H](CC(C)C)NC(=O)[C@H](CCCNC(=N)N)NC(=O)[C@H](CCC(N)=O)NC(=O)[C@H](CC(C)C)NC(=O)[C@H](CCCNC(=N)N)NC(=O)[C@H](C)NC(=O)CNC(=O)[C@H](CCC(=O)O)NC(=O)[C@H](CCCNC(=N)N)NC(=O)[C@H](CC(C)C)NC(=O)[C@H](CCCNC(=N)N)NC(=O)[C@H](CO)NC(=O)[C@H](CC(C)C)NC(=O)[C@H](CCC(=O)O)NC(=O)[C@H](CO)NC(=O)[C@@H](NC(=O)[C@H](Cc1ccccc1)NC(=O)[C@@H](NC(=O)CN)[C@@H](C)O)[C@@H](C)O)C(=O)N[C@H](C(=O)O)C(C)C [Peptide 117]
EC50 [1, 10]: 166 nM
IC50 [2, 9]: 1920 ± 355 nM

Molecule: HSDGTFTSELSRLREGARLQRLL [Peptide 100]
EC50 [1, 10]: 7.63 nM
β-arrestin2-GFP agonism efficacy [4]: 92,23 % Sec
EC50 [4]: 131 nM

Molecule: HSDGTFTSELSRLREGARLQRL [Peptide 101]
EC50 [1, 10]: 57 nM

Molecule: HSDGTFTSELSRLREGARLQR [Peptide 102]
EC50 [1, 10]: 586 nM

Molecule: HSDGTFTSELSRLREGARLQ [Peptide 103]
EC50 [1, 10]: 875 nM

Molecule: CC(C)C[C@H](NC(=O)CNC(=O)[C@H](CCC(N)=O)NC(=O)[C@H](CC(C)C)NC(=O)[C@H](CC(C)C)NC(=O)[C@H](CCCNC(=N)N)NC(=O)[C@H](CCC(N)=O)NC(=O)[C@H](CC(C)C)NC(=O)[C@H](CCCNC(=N)N)NC(=O)[C@H](C)NC(=O)CNC(=O)[C@H](CCC(=O)O)NC(=O)[C@H](CCCNC(=N)N)NC(=O)[C@H](CC(C)C)NC(=O)[C@H](CCCNC(=N)N)NC(=O)[C@H](CO)NC(=O)[C@H](CC(C)C)NC(=O)[C@H](CCC(=O)O)NC(=O)[C@H](CO)NC(=O)[C@@H](NC(=O)[C@H](Cc1ccccc1)NC(=O)[C@@H](NC(=O)CNC(=O)[C@H](CC(=O)O)NC(=O)[C@@H](N)CO)[C@@H](C)O)[C@@H](C)O)C(=O)N[C@H](C(=O)O)C(C)C [Peptide 115]
EC50 [1, 10]: 22 nM
IC50 [2, 9]: 1280 ± 703 nM

Molecule: HSDGTFTSELSRLREGARLQRLLQ [Peptide 99]
EC50 [1, 10]: 2.09 nM
β-arrestin2-GFP agonism efficacy [4]: 103,60 % Sec
EC50 [4]: 35.9 nM

Molecule: HSDGTFTSELSRLREGARLQRLLQG [Peptide 98]
EC50 [1, 10]: 1.55 nM
β-arrestin2-GFP agonism efficacy [4]: 104,47 % Sec
EC50 [4]: 26.5 nM

Molecule: CC(C)C[C@H](NC(=O)CNC(=O)[C@H](CCC(N)=O)NC(=O)[C@H](CC(C)C)NC(=O)[C@H](CC(C)C)NC(=O)[C@H](CCCNC(=N)N)NC(=O)[C@H](CCC(N)=O)NC(=O)[C@H](CC(C)C)NC(=O)[C@H](CCCNC(=N)N)NC(=O)[C@H](C)NC(=O)CNC(=O)[C@H](CCC(=O)O)NC(=O)[C@H](CCCNC(=N)N)NC(=O)[C@H](CC(C)C)NC(=O)[C@H](CCCNC(=N)N)NC(=O)[C@H](CO)NC(=O)[C@H](CC(C)C)NC(=O)[C@H](CCC(=O)O)NC(=O)[C@H](CO)NC(=O)[C@@H](NC(=O)[C@H](Cc1ccccc1)NC(=O)[C@@H](NC(=O)CNC(=O)[C@H](CC(=O)O)NC(=O)[C@H](CO)NC(=O)[C@@H](N)Cc1c[nH]cn1)[C@@H](C)O)[C@@H](C)O)C(=O)N[C@H](C(N)=O)C(C)C [Peptide 1, reference compound]
Emax [1, 8]: 100%
half-life [5]: 2.5 to 4 min

Molecule: HSDGTFTSELSRLREGARLQRLLQGL [Peptide 97]
EC50 [1, 10]: 0.51 nM
β-arrestin2-GFP agonism efficacy [4]: 109,53 % Sec
EC50 [4]: 8.8 nM

Molecule: [dR]FTSELSRLREAARLQRLLQGLV (ends and bridges not checked) [peptide 136]
cAMP production (GloSensor), agonist mode: intrinsic activity [% of secretin] [7]: 33.6%

More lines, now with the values ahead:

EC50 [1, 10]: > 10000 nM
IC50 [2, 9]: 2730 ± 60 nM
Molecule: CC(C)C[C@H](NC(=O)CNC(=O)[C@H](CCC(N)=O)NC(=O)[C@H](CC(C)C)NC(=O)[C@H](CC(C)C)NC(=O)[C@H](CCCNC(=N)N)NC(=O)[C@H](CCC(N)=O)NC(=O)[C@H](CC(C)C)NC(=O)[C@H](CCCNC(=N)N)NC(=O)[C@H](C)NC(=O)CNC(=O)[C@H](CCC(=O)O)NC(=O)[C@H](CCCNC(=N)N)NC(=O)[C@H](CC(C)C)NC(=O)[C@H](CCCNC(=N)N)NC(=O)[C@H](CO)NC(=O)[C@H](CC(C)C)NC(=O)[C@H](CCC(=O)O)NC(=O)[C@@H](N)CO)C(=O)N[C@H](C(=O)O)C(C)C [Peptide 121]

Kd [3]: 0.074 nM
Molecule: ^125I-labelled W27, Y28-secretin (peptide)

Emax [1, 8]: 31.1 ± 2.2%
Molecule: CC(C)C[C@H](NC(=O)[C@H](C)NC(=O)[C@H](CCC(N)=O)NC(=O)[C@H](CC(C)C)NC(=O)[C@H](CC(C)C)NC(=O)[C@H](CCCNC(=N)N)NC(=O)[C@H](CCC(N)=O)NC(=O)[C@H](CC(C)C)NC(=O)[C@H](CCCNC(=N)N)NC(=O)[C@H](C)NC(=O)CNC(=O)[C@H](CCC(=O)O)NC(=O)[C@H](CCCNC(=N)N)NC(=O)[C@H](CC(C)C)NC(=O)[C@H](CCCNC(=N)N)NC(=O)[C@H](CO)NC(=O)[C@H](CC(C)C)NC(=O)[C@H](CCC(=O)O)NC(=O)[C@H](CO)NC(=O)[C@@H](NC(=O)[C@H](Cc1ccccc1)NC(=O)[C@H](N)CCCNC(=N)N)[C@@H](C)O)C(=O)N[C@H](C(=O)O)C(C)C [Peptide 144]

Emax [1, 8]: 27.5 ± 8.8%
Molecule: CC(C)C[C@H](NC(=O)CNC(=O)[C@H](C)NC(=O)[C@H](CC(C)C)NC(=O)[C@H](CC(C)C)NC(=O)[C@H](CCCNC(=N)N)NC(=O)[C@H](CCC(N)=O)NC(=O)[C@H](CC(C)C)NC(=O)[C@H](CCCNC(=N)N)NC(=O)[C@H](C)NC(=O)CNC(=O)[C@H](CCC(=O)O)NC(=O)[C@H](CCCNC(=N)N)NC(=O)[C@H](CC(C)C)NC(=O)[C@H](CCCNC(=N)N)NC(=O)[C@H](CO)NC(=O)[C@H](CC(C)C)NC(=O)[C@H](CCC(=O)O)NC(=O)[C@H](CO)NC(=O)[C@@H](NC(=O)[C@H](Cc1ccccc1)NC(=O)[C@H](N)CCCNC(=N)N)[C@@H](C)O)C(=O)N[C@H](C(=O)O)C(C)C [Peptide 143]

cAMP production (GloSensor), agonist mode: EC50 [6]: 3370 nM
cAMP production (GloSensor), agonist mode: intrinsic activity [% of secretin] [6]: 90.6%
Molecule: TSELSRLREGARLQRLLQGLV [peptide 120, secretin(7–27)]

cAMP production (GloSensor), agonist mode: intrinsic activity [% of secretin] [7]: 27.5%
Molecule: [dR]FTSELSRLREGARLQRLLAGLV (ends and bridges not checked) [peptide 143]

cAMP production (GloSensor), agonist mode: intrinsic activity [% of secretin] [7]: 31.1%
Molecule: [dR]FTSELSRLREGARLQRLLQALV (ends and bridges not checked) [peptide 144]
